These results are taken from BindingDB's records for doi:10.1074/jbc.M112.380782 (French Alternative Energies and Atomic Energy Commission, 2012).

Molecules are shown by their SMILES. A value given as a limit tells only on which side of the number the result lay.

Experiment in all cases: Enzyme Assay
Experiment [1] concerns the target 72 kDa type IV collagenase (Homo sapiens, UniProt P08253). To be noted: pH 6.8; 25 °C.
For experiment [2], the target named is T1, A disintegrin and metalloproteinase with thrombospondin motifs 5 (Homo sapiens, UniProt Q9UNA0).
T1 sequence (Q9UNA0 whole entry): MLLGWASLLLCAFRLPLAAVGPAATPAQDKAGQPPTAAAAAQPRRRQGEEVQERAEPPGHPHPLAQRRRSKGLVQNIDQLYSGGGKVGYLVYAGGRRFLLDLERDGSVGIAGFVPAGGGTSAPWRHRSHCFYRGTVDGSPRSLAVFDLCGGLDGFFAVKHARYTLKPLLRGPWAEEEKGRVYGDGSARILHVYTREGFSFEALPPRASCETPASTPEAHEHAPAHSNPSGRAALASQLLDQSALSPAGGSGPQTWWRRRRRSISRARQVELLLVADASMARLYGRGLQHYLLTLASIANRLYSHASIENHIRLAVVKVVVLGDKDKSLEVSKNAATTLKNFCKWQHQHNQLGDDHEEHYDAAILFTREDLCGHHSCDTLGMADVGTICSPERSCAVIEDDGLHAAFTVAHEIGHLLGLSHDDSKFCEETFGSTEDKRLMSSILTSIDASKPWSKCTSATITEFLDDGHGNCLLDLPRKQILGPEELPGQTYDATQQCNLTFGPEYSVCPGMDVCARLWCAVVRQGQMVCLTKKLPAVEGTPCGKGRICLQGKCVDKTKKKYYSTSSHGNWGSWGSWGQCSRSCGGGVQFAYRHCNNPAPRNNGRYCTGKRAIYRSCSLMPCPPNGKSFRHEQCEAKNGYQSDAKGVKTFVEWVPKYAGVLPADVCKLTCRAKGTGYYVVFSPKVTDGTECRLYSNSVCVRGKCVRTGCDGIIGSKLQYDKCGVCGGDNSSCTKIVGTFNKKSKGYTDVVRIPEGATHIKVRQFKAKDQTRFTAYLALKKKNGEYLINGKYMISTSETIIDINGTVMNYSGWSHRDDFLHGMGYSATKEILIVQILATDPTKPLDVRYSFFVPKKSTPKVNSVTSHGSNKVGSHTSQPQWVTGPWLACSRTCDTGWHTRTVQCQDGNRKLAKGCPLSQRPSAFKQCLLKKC
The following applies: pH 6.8; 37 °C.

The target in another experiment is Collagenase 3 (Homo sapiens, UniProt P45452). To be noted: pH 6.8; 25 °C.
For experiment [3], the target named is Macrophage metalloelastase (Homo sapiens, UniProt P39900). To be noted: pH 6.8; 25 °C.
Sequence of Macrophage metalloelastase (P39900 whole entry): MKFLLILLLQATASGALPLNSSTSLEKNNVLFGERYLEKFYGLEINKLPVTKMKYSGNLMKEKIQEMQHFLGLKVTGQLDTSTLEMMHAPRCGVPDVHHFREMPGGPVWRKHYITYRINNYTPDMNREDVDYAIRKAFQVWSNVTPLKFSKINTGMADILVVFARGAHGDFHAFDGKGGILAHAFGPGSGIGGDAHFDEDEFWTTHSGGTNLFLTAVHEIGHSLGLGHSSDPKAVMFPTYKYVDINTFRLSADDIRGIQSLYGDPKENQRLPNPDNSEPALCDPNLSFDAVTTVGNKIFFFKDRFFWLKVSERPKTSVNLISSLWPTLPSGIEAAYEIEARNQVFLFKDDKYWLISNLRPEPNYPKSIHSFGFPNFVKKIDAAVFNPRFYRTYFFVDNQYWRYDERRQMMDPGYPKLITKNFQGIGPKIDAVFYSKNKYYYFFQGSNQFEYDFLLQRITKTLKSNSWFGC
In experiment [4] the target is Matrix metalloproteinase-14 (Homo sapiens, UniProt P50281). The following applies: pH 6.8; 25 °C.
Experiment [5] addresses Matrix metalloproteinase-9 (Homo sapiens, UniProt P14780). To be noted: pH 6.8; 25 °C.
Another experiment addresses Stromelysin-1 (Homo sapiens, UniProt P08254). To be noted: pH 6.8; 25 °C.
A further experiment concerns the target Stromelysin-2 (Homo sapiens, UniProt P09238). To be noted: pH 6.8; 25 °C.
Experiment [6] deals with T2, A disintegrin and metalloproteinase with thrombospondin motifs 4 (Homo sapiens, UniProt O75173).
T2 sequence (O75173 whole entry): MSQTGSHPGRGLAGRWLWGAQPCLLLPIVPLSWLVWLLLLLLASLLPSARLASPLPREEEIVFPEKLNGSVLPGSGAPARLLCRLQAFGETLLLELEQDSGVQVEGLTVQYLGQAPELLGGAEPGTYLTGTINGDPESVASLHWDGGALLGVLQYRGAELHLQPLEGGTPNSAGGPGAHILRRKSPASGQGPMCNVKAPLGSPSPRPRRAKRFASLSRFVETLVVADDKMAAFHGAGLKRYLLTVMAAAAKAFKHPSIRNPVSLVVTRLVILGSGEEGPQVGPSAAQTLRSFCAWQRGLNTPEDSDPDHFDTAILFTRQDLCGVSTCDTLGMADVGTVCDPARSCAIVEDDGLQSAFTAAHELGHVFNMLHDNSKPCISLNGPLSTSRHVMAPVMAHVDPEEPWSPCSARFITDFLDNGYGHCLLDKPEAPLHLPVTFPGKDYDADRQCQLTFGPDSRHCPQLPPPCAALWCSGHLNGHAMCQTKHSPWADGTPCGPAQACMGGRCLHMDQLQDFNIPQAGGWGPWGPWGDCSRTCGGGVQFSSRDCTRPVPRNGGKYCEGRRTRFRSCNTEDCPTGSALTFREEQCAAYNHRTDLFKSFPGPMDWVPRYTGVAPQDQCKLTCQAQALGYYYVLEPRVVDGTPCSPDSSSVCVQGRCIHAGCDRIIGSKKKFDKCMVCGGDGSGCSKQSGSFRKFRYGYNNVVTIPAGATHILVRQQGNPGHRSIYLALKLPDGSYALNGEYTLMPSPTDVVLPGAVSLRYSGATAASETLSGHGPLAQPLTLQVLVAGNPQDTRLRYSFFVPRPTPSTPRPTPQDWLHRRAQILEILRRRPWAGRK
The following applies: pH 6.8; 25 °C.

In a further experiment the target is Neutrophil collagenase (Homo sapiens, UniProt P22894). The following applies: pH 6.8; 25 °C.
Sequence of Neutrophil collagenase (P22894 whole entry): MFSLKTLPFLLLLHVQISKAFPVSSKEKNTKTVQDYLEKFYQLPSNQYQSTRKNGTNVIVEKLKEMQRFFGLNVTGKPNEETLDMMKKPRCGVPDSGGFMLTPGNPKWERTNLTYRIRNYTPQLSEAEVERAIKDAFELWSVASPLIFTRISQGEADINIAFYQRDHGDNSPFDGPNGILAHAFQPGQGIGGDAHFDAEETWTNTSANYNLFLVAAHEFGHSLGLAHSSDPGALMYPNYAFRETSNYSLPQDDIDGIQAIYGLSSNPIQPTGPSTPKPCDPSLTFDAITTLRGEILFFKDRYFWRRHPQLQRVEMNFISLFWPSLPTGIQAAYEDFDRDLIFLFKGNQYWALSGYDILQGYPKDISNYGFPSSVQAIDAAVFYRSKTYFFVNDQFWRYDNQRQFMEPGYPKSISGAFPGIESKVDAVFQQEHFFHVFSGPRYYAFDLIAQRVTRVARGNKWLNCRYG
For the next experiment, the target named is T3, Interstitial collagenase (Homo sapiens, UniProt P03956).
T3 sequence (P03956 whole entry): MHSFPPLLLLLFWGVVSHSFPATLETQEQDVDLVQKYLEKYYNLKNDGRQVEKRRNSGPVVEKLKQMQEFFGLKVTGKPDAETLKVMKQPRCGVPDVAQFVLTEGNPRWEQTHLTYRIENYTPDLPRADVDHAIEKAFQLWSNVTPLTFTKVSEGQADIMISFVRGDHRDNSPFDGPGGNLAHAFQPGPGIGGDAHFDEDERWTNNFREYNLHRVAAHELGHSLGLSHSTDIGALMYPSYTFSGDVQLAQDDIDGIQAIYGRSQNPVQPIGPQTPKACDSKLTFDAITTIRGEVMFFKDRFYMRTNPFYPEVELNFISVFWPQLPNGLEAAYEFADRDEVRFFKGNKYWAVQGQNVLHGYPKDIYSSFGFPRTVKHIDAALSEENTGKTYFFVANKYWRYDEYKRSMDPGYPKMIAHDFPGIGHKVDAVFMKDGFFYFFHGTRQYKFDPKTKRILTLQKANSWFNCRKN
To be noted: pH 6.8; 25 °C.

The target in a further experiment is T4, Matrilysin (Homo sapiens, UniProt P09237).
T4 sequence (P09237 whole entry): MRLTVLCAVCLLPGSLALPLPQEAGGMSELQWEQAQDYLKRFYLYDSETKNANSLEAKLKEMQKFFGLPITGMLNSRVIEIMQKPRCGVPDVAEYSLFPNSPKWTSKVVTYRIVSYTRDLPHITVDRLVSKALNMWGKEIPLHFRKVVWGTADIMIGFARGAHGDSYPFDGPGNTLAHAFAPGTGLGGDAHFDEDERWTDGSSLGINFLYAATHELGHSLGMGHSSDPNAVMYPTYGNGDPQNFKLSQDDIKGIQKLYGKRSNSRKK
To be noted: pH 6.8; 25 °C.

Sequence of Stromelysin-2 (P09238 whole entry): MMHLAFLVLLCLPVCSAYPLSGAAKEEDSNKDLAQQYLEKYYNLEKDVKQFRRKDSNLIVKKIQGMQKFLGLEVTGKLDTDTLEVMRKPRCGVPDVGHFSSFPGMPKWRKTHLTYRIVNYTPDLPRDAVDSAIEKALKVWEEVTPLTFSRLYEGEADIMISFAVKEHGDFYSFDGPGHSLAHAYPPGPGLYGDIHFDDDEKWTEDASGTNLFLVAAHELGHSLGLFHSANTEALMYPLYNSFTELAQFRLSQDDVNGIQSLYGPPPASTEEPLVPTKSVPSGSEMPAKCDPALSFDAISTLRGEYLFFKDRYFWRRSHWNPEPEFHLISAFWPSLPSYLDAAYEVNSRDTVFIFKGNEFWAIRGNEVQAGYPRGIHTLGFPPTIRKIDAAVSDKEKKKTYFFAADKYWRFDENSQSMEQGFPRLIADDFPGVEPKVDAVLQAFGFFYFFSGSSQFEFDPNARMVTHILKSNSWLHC
Sequence of Stromelysin-1 (P08254 whole entry): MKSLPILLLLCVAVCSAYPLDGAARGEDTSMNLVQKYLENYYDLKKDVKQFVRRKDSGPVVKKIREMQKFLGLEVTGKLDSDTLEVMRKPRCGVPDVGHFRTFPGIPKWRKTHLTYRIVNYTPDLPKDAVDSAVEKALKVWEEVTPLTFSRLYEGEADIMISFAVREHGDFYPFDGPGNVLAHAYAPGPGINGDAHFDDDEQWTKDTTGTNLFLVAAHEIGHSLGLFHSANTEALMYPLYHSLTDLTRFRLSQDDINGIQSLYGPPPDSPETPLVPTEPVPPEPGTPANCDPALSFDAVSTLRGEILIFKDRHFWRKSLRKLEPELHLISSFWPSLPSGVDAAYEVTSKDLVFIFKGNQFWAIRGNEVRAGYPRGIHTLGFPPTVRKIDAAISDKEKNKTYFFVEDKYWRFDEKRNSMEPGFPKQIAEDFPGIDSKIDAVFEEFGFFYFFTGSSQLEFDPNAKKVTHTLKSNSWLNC
Sequence of 72 kDa type IV collagenase (P08253 whole entry): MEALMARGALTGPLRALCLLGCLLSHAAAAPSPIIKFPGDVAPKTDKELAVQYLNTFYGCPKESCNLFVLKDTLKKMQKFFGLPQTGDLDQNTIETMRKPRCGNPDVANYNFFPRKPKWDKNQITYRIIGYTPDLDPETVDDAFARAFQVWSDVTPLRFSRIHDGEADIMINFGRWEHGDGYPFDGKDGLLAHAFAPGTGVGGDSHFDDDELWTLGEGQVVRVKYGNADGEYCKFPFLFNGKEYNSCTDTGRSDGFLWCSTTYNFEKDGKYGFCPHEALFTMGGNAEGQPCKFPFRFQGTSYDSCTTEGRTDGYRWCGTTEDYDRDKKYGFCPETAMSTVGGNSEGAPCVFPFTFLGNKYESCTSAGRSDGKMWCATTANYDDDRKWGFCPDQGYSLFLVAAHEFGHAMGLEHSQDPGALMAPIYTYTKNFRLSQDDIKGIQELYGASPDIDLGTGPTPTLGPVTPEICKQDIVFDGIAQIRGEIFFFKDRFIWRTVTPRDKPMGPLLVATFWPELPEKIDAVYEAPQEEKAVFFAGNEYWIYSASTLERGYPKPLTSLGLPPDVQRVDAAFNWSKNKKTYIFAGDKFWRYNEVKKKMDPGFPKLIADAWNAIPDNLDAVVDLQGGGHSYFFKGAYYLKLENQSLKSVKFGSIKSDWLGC
Sequence of Matrix metalloproteinase-9 (P14780 whole entry): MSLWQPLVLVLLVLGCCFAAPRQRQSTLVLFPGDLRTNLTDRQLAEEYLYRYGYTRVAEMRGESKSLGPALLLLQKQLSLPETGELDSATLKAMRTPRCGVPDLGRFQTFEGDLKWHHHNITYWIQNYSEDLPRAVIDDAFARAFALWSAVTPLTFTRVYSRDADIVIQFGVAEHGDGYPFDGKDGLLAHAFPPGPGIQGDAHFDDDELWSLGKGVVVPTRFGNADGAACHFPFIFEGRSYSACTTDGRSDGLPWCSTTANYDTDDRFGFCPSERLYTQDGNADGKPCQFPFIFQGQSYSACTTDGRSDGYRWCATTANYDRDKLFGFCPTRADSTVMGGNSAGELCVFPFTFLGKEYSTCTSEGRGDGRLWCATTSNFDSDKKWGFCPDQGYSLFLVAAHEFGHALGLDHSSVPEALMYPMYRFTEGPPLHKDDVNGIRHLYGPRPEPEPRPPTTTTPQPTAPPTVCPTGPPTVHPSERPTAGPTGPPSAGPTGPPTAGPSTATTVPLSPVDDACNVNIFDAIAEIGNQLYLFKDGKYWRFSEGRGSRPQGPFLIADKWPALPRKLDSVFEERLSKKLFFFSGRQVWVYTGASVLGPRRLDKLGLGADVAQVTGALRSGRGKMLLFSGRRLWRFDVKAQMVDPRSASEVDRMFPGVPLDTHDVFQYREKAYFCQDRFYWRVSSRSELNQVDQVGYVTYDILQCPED

As usually defined, the Ki is a dissociation constant, usually derived from enzyme kinetics or from competition with a known ligand. For `NC(=O)[C@H](CCC(=O)O)NC(=O)c1ccc(-c2cc(-c3ccccc3)cs2)cc1` [Inhibitor, 16], the inhibition constant (Ki) came to 127 nM in experiment [1]; 874 nM in [2]; 501 nM on Collagenase 3; 2.5 nM in experiment [3]; 968 nM in [4]; 2230 nM in experiment [5]. Further, the values for the Ki on Stromelysin-1 and on Stromelysin-2 were 5820 nM and 299 nM, respectively.
Turning to `Cc1ccc(-c2ccc(CCC(=O)N[C@@H](CCC(=O)O)C(N)=O)cc2)s1` [Inhibitor, 17], the Ki in experiment [1] was 57 nM; in experiment [6], greater than 10000 nM; in experiment [2], 3220 nM; on Collagenase 3, 338 nM; in experiment [3], 3.3 nM; in [4], 2350 nM. Also, the inhibition constant Ki was 91 nM in experiment [5], 5.3 nM on Neutrophil collagenase, 2160 nM at Stromelysin-1 and 390 nM at Stromelysin-2.
With `NC(=O)[C@H](CCC(=O)O)NC(=O)CCc1ccc(-c2ccc(-c3ccccc3)cc2)cc1` [Inhibitor, 18], the Ki in experiment [1] is 47 nM; in experiment [2] it was 5800 nM; at Collagenase 3 it was 18 nM; in experiment [3], 3.3 nM; in [4], 1050 nM; in [5], 2190 nM. For the same compound, the inhibition constant (Ki) at Neutrophil collagenase was 205 nM; on Stromelysin-1, 103 nM; at Stromelysin-2 it was 54 nM.
`NC(=O)[C@H](CCC(=O)O)NC(=O)CCc1ccc(-c2ccc(-c3ccccc3)s2)cc1` [Inhibitor, 19]: the Ki in experiment [1] was 583 nM; in [2] it was 585 nM; in experiment [3], 2.9 nM; in experiment [4], greater than 10000 nM; in experiment [5], 1330 nM; on Stromelysin-1, 329 nM. On Stromelysin-2, this compound yielded a Ki of 352 nM.
A word on the IC50: it is the concentration needed to halve the response being measured. A low value points to inhibition by little substance. `CC(C)C(NS(=O)(=O)c1ccc2c(c1)oc1ccc(N3CCOC3=O)cc12)C(=O)O` (stereo unspecified) [MMP Inhibitor, 2]: the IC50 in [1] is 66 nM; at Collagenase 3, 46 nM; against Interstitial collagenase, greater than 2000 nM; against Matrilysin, greater than 2000 nM; in experiment [4] it was greater than 2000 nM; in experiment [5], greater than 300 nM. The IC50 is 37 nM on Neutrophil collagenase and greater than 300 nM against Stromelysin-1.
As for `O=C(NCc1ccc(F)c(Cl)c1)c1cc(C(=O)NCC23CCC(C(=O)O)(CC2)CC3)n2nccc2n1` [MMP Inhibitor, 6], inhibition against Collagenase 3 was half-maximal at 33.4 nM (IC50).
With `NC(=O)[C@@H](CCC(=O)O)NC(=O)[C@H](CCC(=O)O)NC(=O)C(Cc1cc(-c2ccc(-c3cccc(Cl)c3)cc2)no1)CP(=O)(O)c1ccc(Br)cc1` (stereo partly specified) [RXP470, Compound 4], the Ki in experiment [1] is greater than 100 nM; at Interstitial collagenase, greater than 1000 nM; in [3] it was 0.2 nM; in [4], greater than 100 nM; in experiment [5] it was greater than 100 nM; at Neutrophil collagenase, greater than 100 nM. The same compound gave a Ki at Stromelysin-2 of 8 nM.
In the case of `NC(=O)[C@H](CCC(=O)O)NC(=O)CCc1ccc(-c2cc(-c3ccccc3)cs2)cc1` [US8691753, 105], the Ki in experiment [2] is 4200 nM; in [3], 3.6 nM; in experiment [4], 3010 nM; in experiment [5] it was 2630 nM; on Stromelysin-1, 3000 nM; on Stromelysin-2 it was 3110 nM.
